Where a name gives a salt, the structure may show the parent alone. Read-outs that look alike come from different tables or passages of the source.
Key:
[1] = tested on: globally ischemic rat myocardium; test: Autolysis: protection of high energy phosphate stores in globally ischemic rat myocardium; parameters: Autolysis (% Protection): concentration or dose not given beside the values; settings: for Autolysis (% Protection): protection of high energy phosphate stores in globally ischemic rat myocardium
rat dorsal aorta = rat dorsal aorta (Rattus norvegicus, UniProt P22002); test: cell-based; settings: read-out: Calcium Entry Blockade (pA2) (converted)
Sequence of rat dorsal aorta (P22002 whole entry): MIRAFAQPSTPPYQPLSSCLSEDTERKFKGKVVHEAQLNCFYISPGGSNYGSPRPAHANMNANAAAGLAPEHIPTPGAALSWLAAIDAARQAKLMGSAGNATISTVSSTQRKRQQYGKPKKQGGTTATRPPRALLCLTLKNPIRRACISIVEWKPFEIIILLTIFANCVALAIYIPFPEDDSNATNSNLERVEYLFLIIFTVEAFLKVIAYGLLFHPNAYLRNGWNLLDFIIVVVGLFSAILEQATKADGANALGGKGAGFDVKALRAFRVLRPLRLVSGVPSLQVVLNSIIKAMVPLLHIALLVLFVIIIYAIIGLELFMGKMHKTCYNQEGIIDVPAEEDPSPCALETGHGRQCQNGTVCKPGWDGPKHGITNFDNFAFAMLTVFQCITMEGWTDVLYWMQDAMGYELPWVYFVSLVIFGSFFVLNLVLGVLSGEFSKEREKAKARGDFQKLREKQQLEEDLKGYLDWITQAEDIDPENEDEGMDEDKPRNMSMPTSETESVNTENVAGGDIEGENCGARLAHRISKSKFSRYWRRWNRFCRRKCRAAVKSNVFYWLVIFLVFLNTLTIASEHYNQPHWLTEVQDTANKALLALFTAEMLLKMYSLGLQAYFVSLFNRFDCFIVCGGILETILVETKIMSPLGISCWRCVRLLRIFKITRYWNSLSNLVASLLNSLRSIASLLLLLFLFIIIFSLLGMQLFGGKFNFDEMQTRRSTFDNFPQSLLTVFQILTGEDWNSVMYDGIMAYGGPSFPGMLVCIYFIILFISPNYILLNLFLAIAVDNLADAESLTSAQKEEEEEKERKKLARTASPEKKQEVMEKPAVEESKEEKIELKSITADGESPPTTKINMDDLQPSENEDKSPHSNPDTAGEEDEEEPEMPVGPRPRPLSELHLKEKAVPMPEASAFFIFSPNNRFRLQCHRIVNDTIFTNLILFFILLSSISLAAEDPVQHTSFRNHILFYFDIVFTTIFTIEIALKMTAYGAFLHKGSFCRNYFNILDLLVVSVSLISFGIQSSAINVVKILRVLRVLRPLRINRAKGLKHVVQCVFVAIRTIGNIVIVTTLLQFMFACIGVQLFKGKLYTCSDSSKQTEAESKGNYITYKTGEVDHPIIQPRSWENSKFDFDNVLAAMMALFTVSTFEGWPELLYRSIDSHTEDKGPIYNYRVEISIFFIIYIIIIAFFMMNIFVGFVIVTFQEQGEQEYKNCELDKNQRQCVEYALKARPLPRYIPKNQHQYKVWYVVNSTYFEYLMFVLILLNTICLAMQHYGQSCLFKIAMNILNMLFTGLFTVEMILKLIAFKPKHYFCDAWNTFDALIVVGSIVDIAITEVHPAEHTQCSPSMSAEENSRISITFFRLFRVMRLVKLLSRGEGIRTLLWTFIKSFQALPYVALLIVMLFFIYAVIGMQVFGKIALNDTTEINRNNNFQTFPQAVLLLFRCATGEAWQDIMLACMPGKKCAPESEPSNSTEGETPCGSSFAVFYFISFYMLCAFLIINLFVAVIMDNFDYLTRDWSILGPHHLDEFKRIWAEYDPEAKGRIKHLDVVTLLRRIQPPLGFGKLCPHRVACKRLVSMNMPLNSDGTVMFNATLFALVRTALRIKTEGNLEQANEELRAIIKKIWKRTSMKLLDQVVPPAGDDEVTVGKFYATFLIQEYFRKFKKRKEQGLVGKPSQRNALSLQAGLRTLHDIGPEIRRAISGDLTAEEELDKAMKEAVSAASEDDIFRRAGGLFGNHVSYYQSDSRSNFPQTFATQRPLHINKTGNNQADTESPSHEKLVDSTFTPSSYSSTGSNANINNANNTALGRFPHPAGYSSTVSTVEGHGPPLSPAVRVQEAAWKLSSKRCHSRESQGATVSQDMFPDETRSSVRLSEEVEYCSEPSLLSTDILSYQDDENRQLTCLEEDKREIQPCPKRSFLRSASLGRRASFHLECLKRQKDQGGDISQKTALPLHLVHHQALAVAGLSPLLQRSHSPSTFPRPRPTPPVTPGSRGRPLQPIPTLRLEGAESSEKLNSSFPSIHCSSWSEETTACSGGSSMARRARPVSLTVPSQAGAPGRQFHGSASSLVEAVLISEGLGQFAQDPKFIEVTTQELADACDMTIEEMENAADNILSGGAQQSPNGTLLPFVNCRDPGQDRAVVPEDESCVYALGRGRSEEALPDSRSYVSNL
Sequence of rat dorsal aorta (P54290 25-944 partner limits assumed): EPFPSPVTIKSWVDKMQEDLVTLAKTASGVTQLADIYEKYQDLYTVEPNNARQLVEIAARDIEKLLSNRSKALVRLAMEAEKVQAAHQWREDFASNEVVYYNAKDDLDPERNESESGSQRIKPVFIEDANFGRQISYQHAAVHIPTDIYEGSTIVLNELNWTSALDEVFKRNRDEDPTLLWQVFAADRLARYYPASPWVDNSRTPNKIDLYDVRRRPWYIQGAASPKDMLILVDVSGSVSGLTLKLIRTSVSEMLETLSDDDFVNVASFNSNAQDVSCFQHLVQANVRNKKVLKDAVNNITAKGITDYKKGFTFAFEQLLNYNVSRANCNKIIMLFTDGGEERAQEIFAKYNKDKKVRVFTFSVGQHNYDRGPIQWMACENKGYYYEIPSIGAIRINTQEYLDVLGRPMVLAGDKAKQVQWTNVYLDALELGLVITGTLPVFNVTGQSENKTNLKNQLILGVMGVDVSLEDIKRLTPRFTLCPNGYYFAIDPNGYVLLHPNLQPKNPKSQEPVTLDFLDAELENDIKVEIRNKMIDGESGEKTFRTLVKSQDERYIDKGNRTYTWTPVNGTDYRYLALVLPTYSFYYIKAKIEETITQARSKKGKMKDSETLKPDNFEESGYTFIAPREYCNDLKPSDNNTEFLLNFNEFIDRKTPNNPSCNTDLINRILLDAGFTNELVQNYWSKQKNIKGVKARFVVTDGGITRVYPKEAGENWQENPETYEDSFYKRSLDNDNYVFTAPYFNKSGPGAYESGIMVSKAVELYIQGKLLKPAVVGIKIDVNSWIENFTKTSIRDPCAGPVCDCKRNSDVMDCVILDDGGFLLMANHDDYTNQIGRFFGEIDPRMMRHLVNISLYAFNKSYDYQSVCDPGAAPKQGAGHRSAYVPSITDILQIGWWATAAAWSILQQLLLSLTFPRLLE
Sequence of rat dorsal aorta (P54290 945-1091 partner limits assumed): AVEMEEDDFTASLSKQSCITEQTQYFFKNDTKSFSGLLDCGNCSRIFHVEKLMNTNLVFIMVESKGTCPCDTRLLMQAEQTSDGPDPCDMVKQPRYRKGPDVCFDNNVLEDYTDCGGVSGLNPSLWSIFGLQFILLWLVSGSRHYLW
Description: Calcium ion entry blockade was studied in various smooth muscle systems such as rat dorsal aorta, portal vein, and trachea.

[2] = pA2 = negative log of molar antagonist concentration giving dose ratio of 2, active if 7 or greater

| SMILES | Kb (rat dorsal aorta; [2]) | Kb (rat dorsal aorta; […], active if 7 or greater) | Autolysis (% Protection) [1] | anti-ischemia action / protection against autolysis caused by ischemia ([1]; in words, in vitro and in vivo laboratory tests) |
| --- | --- | --- | --- | --- |
| COC(=O)C1=C(C)NC(C)=C(C(=O)OCCCNCCNc2ccccc2)C1c1cccc([N+](=O)[O-])c1 (centres unmarked) [Example 32] | 2.95 nM | – | 0% | – |
| COC(=O)C1=C(C)NC(C)=C(C(=O)OCCCNCCc2c[nH]c3ccccc23)C1c1cccc([N+](=O)[O-])c1 (centres unmarked) [Example 33] | 0.0316 nM | – | 35% | – |
| COC(=O)C1=C(C)NC(C)=C(C(=O)OCCCN(C)CCSc2ccccc2)C1c1cccc([N+](=O)[O-])c1.Cl (centres unmarked) [Example 34, Methyl [3-[N-Methyl-N-[2-(phenylthio)ethyl]amino]propyl] 1,4-Dihydro-2,6-dimethyl-4-(3-nitrophenyl)-3,5-pyridinedicarboxylate Hydrochloride] | – | 0.126 nM | 43% | – |
| COC(=O)C1=C(C)NC(C)=C(C(=O)OCCCNCCOc2ccccc2)C1c1cccc([N+](=O)[O-])c1 (centres unmarked) [Example 35] | 0.468 nM | – | 21% | – |
| COC(=O)C1=C(C)NC(C)=C(C(=O)OCCCN(C)CCN(C)c2ccccc2)C1c1cccc([N+](=O)[O-])c1 (centres unmarked) [Example 36] | 0.126 nM | – | 12% | – |
| COC(=O)C1=C(C)NC(C)=C(C(=O)OCCCN(C)CCNc2ccccc2)C1c1cccc([N+](=O)[O-])c1 (centres unmarked) [Example 37] | 0.129 nM | – | 23% | – |
| COC(=O)C1=C(C)NC(C)=C(C(=O)OCCCN(C)CCN(Cc2ccccc2)c2ccccc2)C1c1cccc([N+](=O)[O-])c1 (centres unmarked) [Example 38] | – | – | 16% | – |
| COC(=O)C1=C(C)NC(C)=C(C(=O)OCCCN(C)CCSc2ccc(C(C)(C)C)cc2C)C1c1cccc([N+](=O)[O-])c1 (centres unmarked) [Example 39] | 14.5 nM | – | 51% | – |
| COC(=O)C1=C(C)NC(C)=C(C(=O)OCCCN(C)CCCSc2ccccc2)C1c1cccc([N+](=O)[O-])c1 (centres unmarked) [Example 40] | 3.63 nM | – | 23% | – |
| COC(=O)C1=C(C)NC(C)=C(C(=O)OCCCN(C)CCSc2ccccc2OC)C1c1cccc([N+](=O)[O-])c1 (centres unmarked) [Example 41] | 2.75 nM | – | – | – |
| COC(=O)C1=C(C)NC(C)=C(C(=O)OC)C1c1ccccc1[N+](=O)[O-] [Nifedipine, 4-(2'-nitrophenyl)-2,6-dimethyl-3,5-dicarbomethoxy-1,4-dihydropyridine, reference compound] | – | – | 21% | – |

Continued, in another order:

| Kb (rat dorsal aorta; [2]) | Kb (rat dorsal aorta; […], active if 7 or greater) | SMILES | Autolysis (% Protection) [1] | anti-ischemia action / protection against autolysis caused by ischemia ([1]; in words, in vitro and in vivo laboratory tests) |
| --- | --- | --- | --- | --- |
| 8.32 nM | – | COC(=O)C1=C(C)NC(C)=C(C(=O)OCCCNCCSc2ccccc2)C1c1cccc([N+](=O)[O-])c1 (centres unmarked) [Example 42] | – | – |
| 2.4 nM | – | COC(=O)C1=C(C)NC(C)=C(C(=O)OCCCN(CCSc2ccccc2)CCSc2ccccc2)C1c1cccc([N+](=O)[O-])c1 (centres unmarked) [Example 43] | 2% | – |
| 0.933 nM | – | CCCCN(CCCOC(=O)C1=C(C)NC(C)=C(C(=O)OC)C1c1cccc([N+](=O)[O-])c1)CCOc1ccccc1 (centres unmarked) [Example 44, [3-[[N-Butyl-N-(2-phenoxyethyl)]amino]propyl]Methyl 1,4-Dihydro-2,6-dimethyl-4-(3-nitrophenyl)-3,5-pyridinedicarboxylate Hydrochloride Hemihydrate] | 16% | – |
| 0.794 nM | – | COC(=O)C1=C(C)NC(C)=C(C(=O)OCCCN(CCN(C)c2ccccc2)Cc2ccccc2)C1c1cccc([N+](=O)[O-])c1 (centres unmarked) [Example 45, [3-[[[2-(N-Methyl-N-phenyl)amino]ethyl]-N'-phenylmethyl]propyl]Methyl 1,4-Dihydro-2,6-dimethyl-4-(3-nitrophenyl)-3,5-pyridinedicarboxylate Dihydrochloride Sesquihydrate] | – | – |
| – | 5.62 nM | COC(=O)C1=C(C)NC(C)=C(C(=O)OCCCN(CCSc2ccccc2)Cc2ccccc2)C1c1cccc([N+](=O)[O-])c1.Cl (centres unmarked) [Example 46, Methyl [3-[N-(Phenylmethyl)-N-[2-(phenylthio)ethyl]amino]propyl] 1,4-Dihydro-2,6-dimethyl-4-(3-nitrophenyl)-3,5-pyridinedicarboxylate Hydrochloride] | 3% | – |
| 0.251 nM | – | COC(=O)C1=C(C)NC(C)=C(C(=O)OCCCN(C)CC[S+]([O-])c2ccccc2)C1c1cccc([N+](=O)[O-])c1 (centres unmarked) [Example 47, Methyl [3-[N-Methyl-N-[2-phenylsulfinyl)ethyl]amino]propyl] 1,4-Dihydro-2,6-dimethyl-4-(3-nitrophenyl)-3,5-pyridinedicarboxylate Hydrochloride Hydrate] | 21% | – |
| 1.12 nM | – | COC(=O)C1=C(C)NC(C)=C(C(=O)OCCN(C)Cc2ccccc2)C1c1cccc([N+](=O)[O-])c1 (centres unmarked) [Nicardipine, reference compound] | 0% | fails to provide any protection against autolysis caused by ischemia |

Source: patent US4814455A, “Dihydro-3,5-dicarboxylates” (Bristol-Myers Company, priority 1986, dated 1989)
